Test results published in patent publication US20080214557A1, “METHOD FOR PREPARATION OF PHARMACEUTICAL COMPOSITION HAVING IMPROVED DISINTEGRATABILITY AND PHARMACEUTICAL COMPOSITION MANUFACTURED BY SAME METHOD” (Eisai R&D Management Co., Ltd., priority 2005, published 2008).

Assay: pH of 2.5 wt % aqueous solutions of the salts in purified water
Type: physicochemical
Conditions: 2.5 wt % aqueous solution in purified water

Row | Molecule | pH of 2.5% salt solution
1 | [Ca+2].[Cl-].[Cl-] [CaCl2(anhydrous), anhydrous calcium chloride] | 8.40
2 | NCC(=O)O [Glycine, glycine] | 6.12
3 | [Cl-].[K+] [KCl, potassium chloride] | 6.05
4 | Cl.N [NH4Cl, ammonium chloride] | 4.97
5 | O=C([O-])[O-].[Na+].[Na+] [Na2CO3(anhydrous), anhydrous sodium carbonate] | 11.31
6 | O=P([O-])([O-])O.[Na+].[Na+] [Na2HPO4(anhydrous), anhydrous disodium hydrogen phosphate] | 8.90
7 | [Cl-].[Na+] [NaCl, sodium chloride] | 5.69
8 | O=C([O-])O.[Na+] [NaHCO3(anhydrous), anhydrous sodium bicarbonate] | 8.09
9 | anhydrous sodium acetate [CH3CO2Na(anhydrous)] | 8.25
